In patent publication EP1203770A1 (priority 1992, dated 1994):

Molecular target: T1, HIV-1 protease (Human immunodeficiency virus type 1 group M subtype B, UniProt P04585)
T1 construct: The protease (or proteinase), consisting of only 99 amino acids, is among the smallest enzymes known
Test: In vitro HIV protease inhibitory assay (HIV Protease FITC Assay)
Assay type: biochemical
Conditions: for inhibition at 0.123 µM / inhibition at 0.37 µM / inhibition at 1.1 µM / inhibition at 3.3 µM / inhibition at 10 µM / inhibition at 30 µM: read-out: HIV-1 Protease % Inhib; for Ki: read-out: HIV-1 FITC Ki
Method in brief: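 Biotin/FITC-labelled peptide substrate cleaved by HIV-1 protease for 1 h at room temperature in the dark, in 0.1 M sodium acetate pH 5.5, 1.0 M NaCl, 0.05% NP-40. Uncleaved substrate captured on avidin beads and separated by filtration; fluorescence gave % inhibition.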

Structure (SMILES) | inhibition at 0.123 µM (HIV-1 Dose 0.123 uM) | inhibition at 0.37 µM (HIV-1 Dose 0.370 uM) | inhibition at 1.1 µM (HIV-1 Dose 1.100 uM) | inhibition at 3.3 µM (HIV-1 Dose 3.300 uM) | inhibition at 10 µM (HIV-1 Dose 10.000 uM) | inhibition at 30 µM (HIV-1 Dose 30.000 uM) | Ki | HIV-1 Protease % Inhib (HIV-1 Dose 0.123 uM) | HIV-1 Protease % Inhib (HIV-1 Dose 0.370 uM) | HIV-1 Protease % Inhib (HIV-1 Dose 1.100 uM) | HIV-1 Protease % Inhib (HIV-1 Dose 3.300 uM) | HIV-1 Protease % Inhib (HIV-1 Dose 10.000 uM) | HIV-1 Protease % Inhib (HIV-1 Dose 30.000 uM)
CCC(Cc1ccccc1)c1cc(O)c(C(c2cccc(NS(=O)(=O)c3cccc4cccnc34)c2)C2CC2)c(=O)o1 (stereo not drawn) [Example 229, 3-(α-Cyclopropyl-meta-(8-quinolinesulfonylamino)benzyl)-6-(α-ethylphenethyl)-4-hydroxy-2H-pyran-2-one] | 52.2% | 95.9% | 106% | 106% | 113% | 102% | 3.5 nM | – | – | – | – | – | –
CCC(Cc1ccccc1)c1cc(O)c(C(c2cccc(NC(=O)CCn3ccc4ccccc43)c2)C2CC2)c(=O)o1 (stereo not drawn) [Example 230, 3-(α-Cyclopropyl-meta-(3-(1-indolyl)propanoylamino)benzyl)-6-(α-ethylphenethyl)-4-hydroxy-2H-pyran-2-one] | < 10% | 15.3% | 48.6% | 71.3% | 91.1% | 85.3% | – | – | – | – | – | – | –
CCC(Cc1ccccc1)c1cc(O)c(C(c2cccc(NC(=O)Cc3ccccn3)c2)C2CC2)c(=O)o1 (stereo not drawn) [Example 231, 3-(α-Cyclopropyl-meta-(2-pyridylacetylamino)benzyl)-6-(α-ethylphenethyl)-4-hydroxy-2H-pyran-2-one] | 16.5% | 57.4% | 77.7% | 98.9% | 113% | 109% | 52.4 nM | – | – | – | – | – | –
COCOCc1ccc(C(C2=C(O)CC(CCc3ccccc3)(CC(C)C)OC2=O)C2CC2)s1 (stereo not drawn) [Example 232, 2H-Pyran-2-one, 3-(α-cyclopropyl-[5-(methoxymethoxy-methyl)-thiophen-2-yl]-methyl)-5,6-dihydro-4-hydroxy-6-(2-methylpropyl)-6-(2-phenylethyl)-] | – | – | – | – | – | – | 76 nM | 10.57% | 36.97% | 73.74% | 93.56% | 103.56% | 98.87%
C=CC(C1=C(O)CC(CCc2ccccc2)(CC(C)C)OC1=O)c1ccccc1 (stereo not drawn) [Example 233, 2H-Pyran-2-one, 5,6-dihydro-4-hydroxy-6-(2-methylpropyl)-6-(2-phenylethyl)-3-(1-phenyl-2-propenyl)-] | < 10% | 28.9% | 64.9% | 83.1% | 93.7% | 59.4% | 24.8 nM | – | – | – | – | – | –
CCC(C1=C(O)CC(CCc2ccccc2)(CC(C)C)OC1=O)c1ccccc1 (stereo not drawn) [Example 234, 2H-Pyran-2-one, 5,6-dihydro-4-hydroxy-6-(2-methylpropyl)-6-(2-phenylethyl)-3-(1-phenylpropyl)-] | < 10% | 33.4% | 61.6% | 81.1% | 83% | 71.1% | 39.4 nM | – | – | – | – | – | –
O=C1OC(CCc2ccccc2)(CCc2ccccc2)CC(O)=C1C(c1ccccc1)c1ccccc1 [Example 235, 2H-Pyran-2-one, 5,6-dihydro-3-diphenylmethyl4-hydroxy-6,6-di-(2-phenylethyl)-] | < 10% | 13.7% | 33.2% | 61.6% | 73.3% | 80.1% | – | – | – | – | – | – | –
O=C1OC(CCc2ccccc2)(CCc2ccccc2)CC(O)=C1C(C=Cc1ccccc1)c1ccccc1 (stereo not drawn) [Example 236, 2H-Pyran-2-one, 5,6-dihydro-4-hydroxy-6,6-di-(2-phenylethyl)-3-(1,3-diphenyl-2-propenyl)-] | < 10% | < 10% | 26% | 54.1% | 75.8% | 78.7% | – | – | – | – | – | – | –
O=C1OC(CCc2ccccc2)(CCc2ccccc2)CC(O)=C1C(CCc1ccccc1)c1ccccc1 (stereo not drawn) [Example 237, 2H-Pyran-2-one, 5,6-dihydro-4-hydroxy-6,6-di-(2-phenylethyl)-3-(1,3-diphenylpropyl)-] | < 10% | 10.2% | 32% | 60.2% | 80.9% | 78.2% | – | – | – | – | – | – | –
CCCC1(CCCc2ccccc2)CC(O)=C(C(C=Cc2ccccc2)c2ccccc2)C(=O)O1 (stereo not drawn) [Example 238, 2H-Pyran-2-one, 5,6-dihydro-4-hydroxy-3-(1,3-diphenyl-2-propenyl)-6-(3-phenylpropyl)-6-propyl-] | < 10% | 20.5% | 52.8% | 75.6% | 81% | 87.1% | 163 nM | – | – | – | – | – | –
CCCC1(CCCc2ccccc2)CC(O)=C(C(CCc2ccccc2)c2ccccc2)C(=O)O1 (stereo not drawn) [Example 239, 2H-Pyran-2-one, 5,6-dihydro-4-hydroxy-3-(1,3-diphenylpropyl)-6-(3-phenylpropyl)-6-propyl-] | < 10% | 35.8% | 63.9% | 79.8% | 91% | 85.7% | 99 nM | – | – | – | – | – | –
CCCC1(CCc2ccccc2)CC(O)=C(C(c2ccc(COCOC)s2)C2CC2)C(=O)O1 (stereo not drawn) [Example 240, 2H-Pyran-2-one, 3-(α-cyclopropyl-[5-(methoxymethoxy-methyl)-thiophen-2-yl]-methyl)-5,6-dihydro-4-hydroxy-6-(2-phenylethyl)-6-propyl-] | < 10% | 40.6% | 68.7% | 95% | 113% | 104% | 29.2 nM | – | – | – | – | – | –
CCCC1(CCCc2ccccc2)CC(O)=C(C(c2ccc(COCOC)s2)C2CC2)C(=O)O1 (stereo not drawn) [Example 241, 2H-Pyran-2-one, 3-(α-cyclopropyl-[5-(methoxymethoxy-methyl)-thiophen-2-yl]-methyl)-5,6-dihydro-4-hydroxy-6-(3-phenylpropyl)-6-propyl-] | < 10% | < 10% | 32.8% | 62.9% | 87.1% | 90.3% | – | – | – | – | – | – | –
CCCC1(CCCc2ccccc2)CC(O)=C(C(c2ccccc2)c2ccccc2)C(=O)O1 (stereo not drawn) [Example 242, 2H-Pyran-2-one, 5,6-dihydro-3-diphenylmethyl-4-hydroxy-6-(3-phenylpropyl)-6-propyl-] | < 10% | 19.9% | 53.5% | 80.5% | 90.2% | 93.2% | 32.3 nM | – | – | – | – | – | –
O=c1oc(C(CC2CC2)CC2CCCOC2)cc(O)c1C(c1ccccc1)C1CC1 (stereo not drawn) [Example 243, 3-(α-Cyclopropylbenzyl)-6-[1-cyclopropylmethyl-2-(tetrahydropyran-3-yl)ethyl]-4-hydroxy-2H-pyran-2-one] | < 10% | 36.2% | 70.5% | 94.7% | 105% | 102% | 69 nM | – | – | – | – | – | –
CCS(=O)(=O)Nc1cccc(C(c2c(O)cc(C(CC3CC3)CC3CCCOC3)oc2=O)C2CC2)c1 (stereo not drawn) [Example 244] | 20.7% | 57.9% | 81.9% | 90.6% | 103% | 99.4% | 15.4 nM | – | – | – | – | – | –
Cc1ccc(S(=O)(=O)Nc2cccc(C(c3c(O)cc(C(CC4CC4)CC4CCCOC4)oc3=O)C3CC3)c2)cc1 (stereo not drawn) [Example 245] | 25.9% | 58% | 83.3% | 90.3% | 96.9% | 94.1% | 20.6 nM | – | – | – | – | – | –
